Data reported in US20260224532A1, “ESTROGEN RECEPTOR BETA LIGANDS FOR THE PREVENTION AND TREATMENT OF MULTIPLE SCLEROSIS (MS) AND OTHER DEMYELINATING, INFLAMMATORY AND NEURODEGENERATIVE DISEASES” (The Board of Trustees of the University of Illinois, priority 2023, published 2026).

Assays:
[1] = molecular target: T1, purified, full length human ERα (Homo sapiens, UniProt P03372); test: Relative binding affinity (RBA) radiometric competitive binding assay, ERα; conditions: for RBA ERα: relative binding affinity, E2 (estradiol) is 100%, tritiated estradiol tracer; for binding affinity for ERα (in words): compared with the other 7-substituted indazoles
T1 construct: purified, full length human ERα and ERβ
T1 sequence (P03372 1-595): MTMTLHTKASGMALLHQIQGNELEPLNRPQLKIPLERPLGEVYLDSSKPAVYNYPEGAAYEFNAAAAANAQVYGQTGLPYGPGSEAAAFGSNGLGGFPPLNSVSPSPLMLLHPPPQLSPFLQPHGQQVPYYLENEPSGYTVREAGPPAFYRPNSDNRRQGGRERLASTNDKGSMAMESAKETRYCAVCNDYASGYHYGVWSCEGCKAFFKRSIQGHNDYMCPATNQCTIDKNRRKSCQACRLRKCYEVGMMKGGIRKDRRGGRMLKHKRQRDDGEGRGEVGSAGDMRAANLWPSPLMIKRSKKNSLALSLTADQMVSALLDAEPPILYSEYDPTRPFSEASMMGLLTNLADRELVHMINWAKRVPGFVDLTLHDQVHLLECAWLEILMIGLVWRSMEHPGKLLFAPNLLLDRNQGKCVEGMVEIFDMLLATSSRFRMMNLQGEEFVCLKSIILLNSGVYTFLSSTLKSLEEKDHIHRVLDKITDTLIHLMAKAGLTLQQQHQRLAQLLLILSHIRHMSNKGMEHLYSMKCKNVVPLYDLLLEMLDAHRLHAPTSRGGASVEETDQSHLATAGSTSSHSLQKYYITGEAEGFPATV

[2] = molecular target: T2, purified, full length human ERβ (Homo sapiens, UniProt Q92731); test: Relative binding affinity (RBA) radiometric competitive binding assay, ERβ; conditions: for β/α (ERβ/ERα selectivity): ratio of RBA ERβ to RBA ERα; for RBA ERβ: relative binding affinity, E2 (estradiol) is 100%, tritiated estradiol tracer; for selectivity of binding to ERβ vs ERα: text statement of the β/α ratio; for binding affinity for ERβ (in words): compared with the other 7-substituted indazoles
T2 construct: purified, full length human ERα and ERβ
T2 sequence (Q92731 whole entry): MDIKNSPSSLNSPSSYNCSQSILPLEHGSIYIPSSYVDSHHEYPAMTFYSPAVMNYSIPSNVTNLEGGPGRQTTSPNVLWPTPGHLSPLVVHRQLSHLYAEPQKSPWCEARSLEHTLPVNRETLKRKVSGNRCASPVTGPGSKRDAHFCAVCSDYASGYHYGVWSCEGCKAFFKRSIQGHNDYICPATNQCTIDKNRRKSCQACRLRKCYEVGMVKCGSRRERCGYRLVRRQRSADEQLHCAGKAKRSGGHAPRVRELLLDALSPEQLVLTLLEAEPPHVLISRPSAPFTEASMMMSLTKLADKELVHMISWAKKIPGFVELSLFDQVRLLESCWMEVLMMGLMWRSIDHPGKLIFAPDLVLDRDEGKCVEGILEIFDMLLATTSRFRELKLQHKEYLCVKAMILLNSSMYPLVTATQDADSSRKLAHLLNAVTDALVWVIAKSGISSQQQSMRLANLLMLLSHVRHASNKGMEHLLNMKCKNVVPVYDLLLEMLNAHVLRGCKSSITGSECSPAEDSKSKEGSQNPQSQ

Row | Structure (SMILES) | RBA ERα [1] | β/α (ERβ/ERα selectivity) [2] | RBA ERβ [2] | selectivity of binding to ERβ vs ERα [2] | binding affinity for ERα (in words) [1] | binding affinity for ERβ (in words) [2]
1 | Cc1cc(O)ccc1-n1nc2cc(Cl)c(O)cc2c1Cl [Compound 20, 3,6-dichloro-2-(4-hydroxy-2-methylphenyl)-2H-indazol-5-ol] | 0.071% | 2.63 | 0.187% |  |  | 
2 | Cc1cc(O)cc2cn(-c3ccc(O)cc3)nc12 [Compound 10, 7-methyl-2-(4-hydroxyphenyl)-2H-indazol-5-ol] | 0.018% | 144 | 2.59% | 144 fold |  | 
3 | Oc1cc(Cl)c2nn(-c3ccc(O)c(F)c3)cc2c1 [Compound 13, 7-Chloro-2-(3-fluoro-4-hydroxyphenyl)-2H-indazol-5-ol] | 0.023% | 469 | 10.76% | 469 fold |  | 
4 | Cc1cc(O)ccc1-n1nc2c(O)cc(O)cc2c1Cl [Compound 22, 3-chloro-2-(4-hydroxy-2-methylphenyl)-2H-indazole-5,7-diol] | 0.0005% | 12 | 0.006% |  | lower binding affinity | lower binding affinity
5 | Oc1ccc(-n2cc3cc(O)cc(Cl)c3n2)cc1 [Compound 6, 7-chloro-2-(4-hydroxyphenyl)-2H-indazol-5-ol] | 0.098% | 200 | 19.6 ± 6.1% | 200 fold |  | 
6 | Oc1ccc(-n2nc3c(Cl)cc(O)cc3c2Cl)c(F)c1 [Compound 16, 3,7-dichloro-2-(2-fluoro-4-hydroxyphenyl)-2H-indazol-5-ol] | 4.71% | 6.74 | 31.76% |  |  | 
7 | Oc1ccc(-n2cc3cc(O)cc(Cl)c3n2)c(F)c1 [Compound 15, 7-chloro-2-(2-fluoro-4-hydroxyphenyl)-2H-indazol-5-ol] | 0.052% | 185 | 9.63% | 185 fold |  | 

Now from value to compound:

Row | RBA ERα [1] | β/α (ERβ/ERα selectivity) [2] | RBA ERβ [2] | selectivity of binding to ERβ vs ERα [2] | binding affinity for ERα (in words) [1] | binding affinity for ERβ (in words) [2] | Structure (SMILES)
8 | 21.29% | 7 |  |  |  |  | Oc1ccc(-n2nc3c(Br)cc(O)cc3c2Br)cc1 [Compound 4, 3,7-dibromo-2-(4-hydroxyphenyl)-2H-indazol-5-ol]
9 | 0.258% | 87 | 22.4% |  |  |  | Oc1ccc(-n2cc3cc(O)cc(F)c3n2)cc1 [Compound 8, 7-fluoro-2-(4-hydroxyphenyl)-2H-indazol-5-ol]
10 | 0.055% | 15.49 | 0.852% |  |  |  | Oc1ccc(-n2nc3cc(Cl)c(O)cc3c2Cl)cc1 [Compound 19, 3,6-dichloro-2-(4-hydroxyphenyl)-2H-indazol-5-ol]
11 | 0.001% | 51 | 0.051% |  | lower binding affinity | lower binding affinity | Oc1ccc(-n2nc3c(O)cc(O)cc3c2Cl)cc1 [Compound 21, 3-chloro-2-(4-hydroxyphenyl)-2H-indazole-5,7-diol]
12 | 2.76% | 17 | 45.9% |  |  |  | Cc1cc(O)cc2c(Cl)n(-c3ccc(O)cc3)nc12 [Compound 11, 3-Chloro-7-methyl-2-(4-hydroxyphenyl)-2H-indazol-5-ol]
13 | 2.2% | 37 | 82.3% |  |  |  | Oc1ccc(-n2nc3c(F)cc(O)cc3c2Cl)cc1 [Compound 9, 3-Chloro-7-fluoro-2-(4-hydroxyphenyl)-2H-indazol-5-ol]
